These results are taken from article PMC10734772 (Turkish Journal of Chemistry, 2021).

As usually defined, the melting point is the temperature, or range, at which the solid turns liquid. With `Cc1ccnc(Nc2cc(NC(=O)c3ccc(CN4CCN(c5ncccn5)CC4)cc3)ccc2C)n1` [Compound 5, N-(4-Methyl-3-((4-methylpyrimidin-2-yl)amino)phenyl)-4-((4-(pyrimidin-2-yl)piperazin-1-yl)methyl)benzamide], the melting point was found to be 89 °C. As for `Cc1ccc(NC(=O)c2ccc(CN3CCN(c4ncccn4)CC3)cc2)cc1Nc1cnccn1` [Compound 7, N-(4-Methyl-3-(pyrazin-2-ylamino)phenyl)-4-((4-(pyrimidin-2-yl)piperazin-1-yl)methyl)benzamide], the figure is 143 °C. `Cc1ccnc(Nc2cc(NC(=O)c3ccc(CN4CCOCC4)cc3)ccc2C)n1` [Compound 8, N-(4-Methyl-3-((4-methylpyrimidin-2-yl)amino)phenyl)-4-(morhpolinomethyl)benzamide] came in with a melting point of 157 °C.

`Cc1ccnc(Nc2cc(NC(=O)c3ccc(CN4CCOCC4)cc3)ccc2C)c1` [Compound 9, N-(4-Methyl-3-((4-methylpyridin-2-yl)amino)phenyl)-4-(morhpolinomethyl)benzamide]: the melting point was 155 to 157 °C. The value for `COc1ccc(CN2CCN(Cc3ccc(C(=O)Nc4ccc(C)c(Nc5cc(C)ccn5)c4)cc3)CC2)c(OC)c1OC` [Compound 10, N-(4-Methyl-3-((4-methylpyridin-2-yl)amino)phenyl)-4-((4-(2,3,4-trimethoxybenzyl)piperazin-1-yl)methyl)benzamide] was 87 °C.
